Experimental data: ChEMBL document CHEMBL1201862, “PubChem BioAssay data set” (2004)
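Exposure lasted 48 hours, with cells grown in 96-well plates and compounds tested at five concentrations. Here, GI50 denotes the concentration required for 50% inhibition of growth.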 Active and inactive are the calls of the source. Rule as the data show it: active = GI50 up to about 1.1 µM and inactive = higher.

Experiments:
Test in all cases: DTP human tumour cell line panel, 48 h
MOLT-4 = tested on: MOLT-4
HL-60 = tested on: HL-60
NCI-H226 = tested on: NCI-H226
OVCAR-3 = tested on: OVCAR-3
UACC-257 = tested on: UACC-257
COLO 205 = tested on: COLO 205
KM12 = tested on: KM12
HCT-15 = tested on: HCT-15
ACHN = tested on: ACHN
TK-10 = tested on: TK-10
SF-268 = tested on: SF-268
LOX IMVI = tested on: LOX IMVI
SF-539 = tested on: SF-539
SK-MEL-2 = tested on: SK-MEL-2
Malme-3M = tested on: Malme-3M
UACC-62 = tested on: UACC-62
786-0 = tested on: 786-0

Structure (SMILES)	GI50 (MOLT-4)	GI50 (HL-60)	GI50 (NCI-H226)	GI50 (OVCAR-3)	GI50 (UACC-257)	GI50 (COLO 205)	GI50 (KM12)	GI50 (HCT-15) [µM]	GI50 (ACHN)	GI50 (TK-10)	GI50 (SF-268)	GI50 (LOX IMVI)	GI50 (SF-539)	GI50 (SK-MEL-2)	GI50 (Malme-3M)	GI50 (UACC-62)	GI50 (786-0)
COc1ccc(/N=C/c2ccc(N(CCC#N)S(=O)(=O)c3ccccc3)cc2)cc1	> 100 µM (inactive)	> 100 µM (inactive)	> 100 µM (inactive)	> 100 µM (inactive)	> 100 µM (inactive)	> 100 µM (inactive)	> 100 µM (inactive)	> 100	> 100 µM (inactive)	> 100 µM (inactive)	> 100 µM (inactive)	> 100 µM (inactive)	> 100 µM (inactive)	> 100 µM (inactive)	> 100 µM (inactive)	> 100 µM (inactive)	> 100 µM (inactive)
CCCCCCCSCC1C(=O)C23C(O)C1CCC2C12COC3(O)C(O)C1C(C)(C)CCC2O (stereo not given)	3.3 µM (inactive)	3.96 µM (inactive)	17.7 µM (inactive)	16.7 µM (inactive)	7.16 µM (inactive)	4.16 µM (inactive)	10.6 µM (inactive)	9.02	12.4 µM (inactive)	15.9 µM (inactive)	10.8 µM (inactive)	13.3 µM (inactive)	13.2 µM (inactive)	14.8 µM (inactive)	14.1 µM (inactive)	11.5 µM (inactive)	13.8 µM (inactive)
O=C(Nc1c(O)[nH]c(=S)[nH]c1=O)c1ccccc1F	> 100 µM (inactive)	> 100 µM (inactive)	> 100 µM (inactive)	> 100 µM (inactive)	> 100 µM (inactive)	> 100 µM (inactive)	> 100 µM (inactive)	> 100	> 100 µM (inactive)	> 100 µM (inactive)	> 100 µM (inactive)	> 100 µM (inactive)	> 100 µM (inactive)	> 100 µM (inactive)	> 100 µM (inactive)	> 100 µM (inactive)	> 100 µM (inactive)
COC(=O)C12C34C=CC5(CCC6(C=CC1(CC3)O6)C52C(=O)OC)O4 (stereo not given)	> 100 µM (inactive)	> 100 µM (inactive)	> 100 µM (inactive)	–	> 100 µM (inactive)	> 100 µM (inactive)	> 100 µM (inactive)	–	> 100 µM (inactive)	> 100 µM (inactive)	> 100 µM (inactive)	> 100 µM (inactive)	> 100 µM (inactive)	> 100 µM (inactive)	> 100 µM (inactive)	–	> 100 µM (inactive)
C/C(=N/NC(=O)C(N)=O)C(CC(C(=O)Nc1ccccc1C)/C(C)=N\NC(=O)C(N)=O)C(=O)Nc1ccccc1C (stereo not given)	75.9 µM (inactive)	> 100 µM (inactive)	> 100 µM (inactive)	> 100 µM (inactive)	> 100 µM (inactive)	> 100 µM (inactive)	> 100 µM (inactive)	–	83.2 µM (inactive)	> 100 µM (inactive)	> 100 µM (inactive)	> 100 µM (inactive)	> 100 µM (inactive)	> 100 µM (inactive)	> 100 µM (inactive)	–	> 100 µM (inactive)
CCCC/C=C1\CCC(C)(CN(C)C)C1=O (stereo not given)	> 100 µM (inactive)	55.5 µM (inactive)	–	> 100 µM (inactive)	> 100 µM (inactive)	–	> 100 µM (inactive)	> 100	> 100 µM (inactive)	> 100 µM (inactive)	> 100 µM (inactive)	–	> 100 µM (inactive)	> 100 µM (inactive)	> 100 µM (inactive)	> 100 µM (inactive)	> 100 µM (inactive)
CCOc1ccc(NC(=O)CCc2nnc(SC)o2)cc1	> 100 µM (inactive)	> 100 µM (inactive)	> 100 µM (inactive)	> 100 µM (inactive)	> 100 µM (inactive)	> 100 µM (inactive)	> 100 µM (inactive)	> 100	> 100 µM (inactive)	> 100 µM (inactive)	> 100 µM (inactive)	> 100 µM (inactive)	> 100 µM (inactive)	> 100 µM (inactive)	> 100 µM (inactive)	> 100 µM (inactive)	> 100 µM (inactive)
Cc1c(C)c2cc3c(=O)ccoc3c(C)c2oc1=O	20.9 µM (inactive)	50.2 µM (inactive)	29.8 µM (inactive)	> 100 µM (inactive)	> 100 µM (inactive)	47 µM (inactive)	> 100 µM (inactive)	> 100	> 100 µM (inactive)	> 100 µM (inactive)	71.3 µM (inactive)	54 µM (inactive)	85.5 µM (inactive)	> 100 µM (inactive)	> 100 µM (inactive)	21.9 µM (inactive)	> 100 µM (inactive)
CCCCCCCCCCCCCCCCOC(=O)c1cc(O)cc(C(=O)OCCCCCCCCCCCCCCCC)c1	> 100 µM (inactive)	> 100 µM (inactive)	> 100 µM (inactive)	> 100 µM (inactive)	> 100 µM (inactive)	> 100 µM (inactive)	> 100 µM (inactive)	> 100	> 100 µM (inactive)	> 100 µM (inactive)	> 100 µM (inactive)	> 100 µM (inactive)	–	> 100 µM (inactive)	> 100 µM (inactive)	> 100 µM (inactive)	> 100 µM (inactive)
Cc1cc(C)c(C(=O)/C(=C/c2ccccc2)c2ccccc2)c(C)c1	29 µM (inactive)	27.5 µM (inactive)	50.9 µM (inactive)	51.4 µM (inactive)	28.4 µM (inactive)	91.6 µM (inactive)	55.2 µM (inactive)	20.6	40.7 µM (inactive)	93.5 µM (inactive)	76.2 µM (inactive)	–	57.5 µM (inactive)	11.3 µM (inactive)	18.2 µM (inactive)	> 100 µM (inactive)	56.2 µM (inactive)
Cc1cc(/C=C/c2cc[n+](C)c3ccccc23)c(O)c2ncccc12	0.646 µM (active)	0.625 µM (active)	1.87 µM (inactive)	0.288 µM (active)	2.97 µM (inactive)	5.68 µM (inactive)	2.19 µM (inactive)	4.65	4.22 µM (inactive)	4.28 µM (inactive)	0.973 µM (active)	1.35 µM (inactive)	0.426 µM (active)	2.67 µM (inactive)	2.8 µM (inactive)	1.99 µM (inactive)	0.916 µM (active)
CCSC1=CC(Cc2ccc(OC)cc2)N(C(=O)OC)C1 (stereo not given)	> 100 µM (inactive)	21.9 µM (inactive)	> 100 µM (inactive)	51.4 µM (inactive)	90.6 µM (inactive)	81.5 µM (inactive)	97.7 µM (inactive)	40.7	> 100 µM (inactive)	> 100 µM (inactive)	> 100 µM (inactive)	36.3 µM (inactive)	> 100 µM (inactive)	97.7 µM (inactive)	> 100 µM (inactive)	65.8 µM (inactive)	> 100 µM (inactive)
COc1ccc2c(c1)CC[C@@H]1C2CC[C@]2(C)C(=O)NC(=O)CC12 (stereo not given in full)	61.8 µM (inactive)	43.6 µM (inactive)	67.5 µM (inactive)	> 100 µM (inactive)	> 100 µM (inactive)	> 100 µM (inactive)	> 100 µM (inactive)	> 100	> 100 µM (inactive)	> 100 µM (inactive)	> 100 µM (inactive)	> 100 µM (inactive)	> 100 µM (inactive)	> 100 µM (inactive)	> 100 µM (inactive)	> 100 µM (inactive)	> 100 µM (inactive)
CCOc1ccc(/N=C/c2c3ccccc3nc3ccccc23)cc1	4.25 µM (inactive)	11 µM (inactive)	> 100 µM (inactive)	31.1 µM (inactive)	55.1 µM (inactive)	> 100 µM (inactive)	4.33 µM (inactive)	25.1	62.1 µM (inactive)	83 µM (inactive)	71 µM (inactive)	40.1 µM (inactive)	65.6 µM (inactive)	31.3 µM (inactive)	49.5 µM (inactive)	95.3 µM (inactive)	39.7 µM (inactive)
S=c1sc2c(S)nc(S)nc2n1-c1ccccc1	> 100 µM (inactive)	> 100 µM (inactive)	> 100 µM (inactive)	> 100 µM (inactive)	> 100 µM (inactive)	> 100 µM (inactive)	54.5 µM (inactive)	> 100	> 100 µM (inactive)	> 100 µM (inactive)	> 100 µM (inactive)	> 100 µM (inactive)	> 100 µM (inactive)	> 100 µM (inactive)	> 100 µM (inactive)	> 100 µM (inactive)	> 100 µM (inactive)
O=C1C2C3C=C4c5ccccc5N(c5ccccc5)C4(C2C(=O)N1c1ccc(Br)cc1)[C@H]1C(=O)N(c2ccc(Br)cc2)C(=O)[C@@H]31 (stereo not given in full)	8.89 µM (inactive)	> 100 µM (inactive)	> 100 µM (inactive)	> 100 µM (inactive)	> 100 µM (inactive)	31.6 µM (inactive)	> 100 µM (inactive)	> 100	–	89.3 µM (inactive)	–	87.9 µM (inactive)	> 100 µM (inactive)	> 100 µM (inactive)	> 100 µM (inactive)	> 100 µM (inactive)	> 100 µM (inactive)
COC(=O)[C@@]12OC[C@]34C([C@@H](O)C1O)[C@@]1(C)CC(=O)C(OC(=O)/C=C(/c5ccccc5)C(F)(F)F)=C(C)C1C[C@H]3OC(=O)[C@H](O)[C@H]42 (stereo not given in full)	2.14 µM (inactive)	1.16 µM (inactive)	6.5 µM (inactive)	–	8.73 µM (inactive)	11.2 µM (inactive)	14.4 µM (inactive)	23.8	13.9 µM (inactive)	10.1 µM (inactive)	11.2 µM (inactive)	–	3.79 µM (inactive)	7.96 µM (inactive)	7.91 µM (inactive)	2.36 µM (inactive)	9.04 µM (inactive)
